Experimental data taken from US20240190872A1, “FABI INHIBITORS FOR GRAM-NEGATIVE PATHOGENS” (THE BOARD OF TRUSTEES OF THE UNIVERSITY OF ILLINOIS, priority 2021, published 2024).
In brackets after ≈: the same amount, converted by molar mass.

Experiments:
Assay type in all cases: cell-based
E. coli MG1655 = assay: Antimicrobial susceptibility test (MIC); settings: for % @ 32 (in brackets after MIC): E. coli MG1655, 32 μg/mL
Text: (§1) Bacterial strains. S. aureus ATCC 29213, E. coli MG1655, E. coli BAA-2340, E. coli BAA-2469, E. coli BAA-2471, E. cloacae BAA-2341, E. cloacae BAA-2468, K. pneumoniae BAA-1705, K. pneumoniae BAA-2342, K. pneumoniae BAA-2470, K. pneumoniae BAA-2472, and K. pneumoniae BAA-2473 were obtained from ATCC. E. coli JW5503 and E. coli JW3596 were obtained from the KEIO Collection. E. cloacae ATCC 29893 was provided by W. van der Donk (UIUC). E. coli AR-0346, E. coli AR-0349, E. coli AR-0493, E. coli AR-0495, and K. pneumoniae AR-0347 were obtained from the CDC and FDA AR Isolate Bank. E. coli F20987, E. coli M66623, E. cloacae S28901.1, K. pneumoniae M14723, K. pneumoniae M67198, K. pneumoniae M67297, K. pneumoniae S20595, K. pneumoniae S47889, A. baumannii W41979, A. baumannii F19521, A. baumannii M13100, and A. baumannii WO22 were obtained from the University of Illinois Chicago Medical School. A. baumannii KB304, A. baumannii KB343, and A. baumannii KB357 were provided by J. Quale.
(§2) Antimicrobial susceptibility tests. Susceptibility testing was performed in biological triplicate, using the micro-dilution broth method as outlined by the Clinical and Laboratory Standards Institute. Bacteria were cultured with cation-adjusted Muller-Hinton broth (Sigma-Aldrich, Cat# 90922) in round-bottom 96-well plates (Corning, Cat# 3788). Human serum (pooled gender, 0.2 μm filtered) was purchased from BioIVT (Hicksville, NY).

S. aureus ATCC 29213 = assay: Antimicrobial susceptibility test (MIC), micro-dilution broth; settings: for MIC S. aureus 29213: S. aureus ATCC 29213
Text: as §1, §2

E. coli ΔtolC (JW5503) = settings: for % @ 0.5 (in brackets after MIC): 0.5 μg/mL; for MIC E. coli ΔtolC: efflux deficient E. coli ΔtolC
Description: (§3) The compounds synthesized, shown in Table 1, were evaluated against Gram-positive and Gram-negative reference strains (S. aureus 29213 and E. coli MG1655, respectively), as well as an efflux deficient E. coli strain (ΔtolC, JW5503).
as §1, §2

K. pneumoniae BAA 2472 = assay: microbe, parasite or virus in culture; settings: clinical isolate
Description: as §3, §1, §2

K. pneumoniae AR 0066 = assay: microbe, parasite or virus in culture; settings: clinical isolate
Description: as §2

A. baumannii AR 0299 = assay: microbe, parasite or virus in culture; settings: clinical isolate
Description: as §2

E. coli AR 0085 = assay: microbe, parasite or virus in culture; settings: clinical isolate
Description: as §2

E. coli AR 0048 = assay: microbe, parasite or virus in culture; settings: clinical isolate
Description: as §2

A. baumannii AR 0313 = assay: microbe, parasite or virus in culture; settings: clinical isolate
Description: as §2

A. baumannii AR 0033 = assay: microbe, parasite or virus in culture; settings: clinical isolate
Description: as §2

A. baumannii AR 0273 = assay: microbe, parasite or virus in culture; settings: clinical isolate
Description: as §2

K. pneumoniae AR 0560 = assay: microbe, parasite or virus in culture; settings: clinical isolate
Description: as §2

K. pneumoniae AR 0113 = assay: microbe, parasite or virus in culture; settings: clinical isolate
Description: as §2

With `Cc1c(CN(C)C(=O)/C=C/c2cnc3c(c2)CC(N)C(=O)N3)oc2ccc(F)cc12.Cl` (centres unmarked) the “MIC E. coli MG1655” value (E. coli MG1655) was over 32 µg/mL, the “% @ 32 (in brackets after MIC)” value (E. coli MG1655) was 40% and the “MIC S. aureus 29213” value (S. aureus ATCC 29213) was 0.125 µg/mL. The “% @ 0.062 (in brackets after MIC)” value (S. aureus ATCC 29213; S. aureus ATCC 29213, 0.062 μg/mL) was 60%, the “% @ 0.5 (in brackets after MIC)” value (E. coli ΔtolC (JW5503); E. coli ΔTolC) was 60% and the “MIC E. coli ΔtolC” value (E. coli ΔtolC (JW5503)) was 1 µg/mL.
`NC1CCc2cc(C=CC(=O)N3CC4C=C(c5ccccc5)CC4C3)cnc2NC1=O` (mixture of isomers) was tested, and the “MIC E. coli MG1655” value (E. coli MG1655) was 8 µg/mL, the “MIC S. aureus 29213” value (S. aureus ATCC 29213) was 0.031 µg/mL and the “MIC E. coli ΔtolC” value (E. coli ΔtolC (JW5503)) was 0.062 µg/mL.
With `Cc1c(CN(C)C(=O)C=Cc2cnc3c(c2)CC2(CCC(CN)CC2)C(=O)N3)oc2ccccc12` (mixture of isomers) [(±)-9] the “MIC E. coli MG1655” value (E. coli MG1655) was 16 µg/mL, the “MIC S. aureus 29213” value (S. aureus ATCC 29213) was 0.031 µg/mL and the “MIC E. coli ΔtolC” value (E. coli ΔtolC (JW5503)) was 0.062 µg/mL.
For `Cc1c(CN(C)C(=O)/C=C/c2cnc3c(c2)CC2(CC(N)C2)C(=O)N3)oc2ccccc12` (centres unmarked), the “MIC E. coli MG1655” value (E. coli MG1655) was 4 µg/mL (≈ 9.29 µM), the “MIC S. aureus 29213” value (S. aureus ATCC 29213) was 0.016 µg/mL (≈ 0.0372 µM) and the “MIC E. coli ΔtolC” value (E. coli ΔtolC (JW5503)) was 0.062 µg/mL (≈ 0.144 µM).
In the case of `Cc1c(CN(C)C(=O)/C=C/c2cnc3c(c2)CCC(N)C(=O)N3)oc2ccccc12` (single isomer, unassigned) [drawing 109], the “MIC E. coli MG1655” value (E. coli MG1655) is reported as over 32 µg/mL, the “% @ 32 (in brackets after MIC)” value (E. coli MG1655) is reported as 20% and the “MIC S. aureus 29213” value (S. aureus ATCC 29213) is reported as 0.125 to 0.250 µg/mL. For the same compound, the “% @ 1 (in brackets after MIC)” value (E. coli ΔtolC (JW5503); E. coli ΔTolC, 1 μg/mL) was 50% and the “MIC E. coli ΔtolC” value (E. coli ΔtolC (JW5503)) was over 1 µg/mL.
For `Cc1c(CN(C)C(=O)/C=C/c2cnc3c(c2)CC(NCCN)C(=O)N3)oc2ccccc12.Cl` (centres unmarked), the “MIC E. coli MG1655” value (E. coli MG1655) was over 32 µg/mL, the “% @ 32 (in brackets after MIC)” value (E. coli MG1655) was 35% and the “MIC S. aureus 29213” value (S. aureus ATCC 29213) was 0.5 µg/mL. The “% @ 0.25 (in brackets after MIC)” value (S. aureus ATCC 29213; S. aureus ATCC 29213, 0.25 μg/mL) was 80%, the “% @ 0.5 (in brackets after MIC)” value (E. coli ΔtolC (JW5503); E. coli ΔTolC) was 50% and the “MIC E. coli ΔtolC” value (E. coli ΔtolC (JW5503)) was 1 µg/mL.
For `Cc1c(CN(C)C(=O)/C=C/c2cnc3c(c2)CC(N)C(=O)N3)oc2cccc(F)c12.Cl` (centres unmarked), the “MIC E. coli MG1655” value (E. coli MG1655) was 8 µg/mL, the “MIC S. aureus 29213” value (S. aureus ATCC 29213) was 0.031 µg/mL and the “MIC E. coli ΔtolC” value (E. coli ΔtolC (JW5503)) was 0.125 µg/mL.
With `Cc1c(CN(C)C(=O)/C=C/c2cnc3c(c2)CCC(CN)C(=O)N3)oc2ccccc12` (centres unmarked) the “MIC K. pneumoniae BAA 2472” value (K. pneumoniae BAA 2472) was 32 µg/mL (≈ 76.5 µM), the “MIC K. pneumoniae AR 0066” value (K. pneumoniae AR 0066) was 32 µg/mL (≈ 76.5 µM) and the “MIC A. baumannii AR 0299” value (A. baumannii AR 0299) was 32 µg/mL (≈ 76.5 µM). For the same compound, the “MIC E. coli AR 0085” value (E. coli AR 0085) was 16 µg/mL (≈ 38.2 µM), the “MIC E. coli AR 0048” value (E. coli AR 0048) was 16 µg/mL (≈ 38.2 µM) and the “MIC A. baumannii AR 0313” value (A. baumannii AR 0313) was 32 µg/mL (≈ 76.5 µM). For the same compound, the “MIC A. baumannii AR 0033” value (A. baumannii AR 0033) was 16 µg/mL (≈ 38.2 µM), the “MIC A. baumannii AR 0273” value (A. baumannii AR 0273) was 32 µg/mL (≈ 76.5 µM) and the “MIC K. pneumoniae AR 0560” value (K. pneumoniae AR 0560) was 16 µg/mL (≈ 38.2 µM). The “MIC K. pneumoniae AR 0113” value (K. pneumoniae AR 0113) was 32 µg/mL (≈ 76.5 µM).
For `Cc1c(CN(C)C(=O)/C=C/c2cnc3c(c2)CC(NCCCN)C(=O)N3)oc2ccccc12.O=CO` (centres unmarked), the “MIC E. coli MG1655” value (E. coli MG1655) was over 32 µg/mL, the “MIC S. aureus 29213” value (S. aureus ATCC 29213) was 0.250 µg/mL and the “MIC E. coli ΔtolC” value (E. coli ΔtolC (JW5503)) was 0.5 µg/mL.
In the case of `Cc1c(CN(C)C(=O)/C=C/c2cnc3c(c2)CCC(N)C(=O)N3)oc2ccccc12` (single isomer, unassigned) [drawing 110], the “MIC E. coli MG1655” value (E. coli MG1655) is reported as 2 µg/mL (≈ 4.94 µM), the “MIC S. aureus 29213” value (S. aureus ATCC 29213) is reported as 0.004 to 0.008 µg/mL and the “% @ 0.016 (in brackets after MIC)” value (E. coli ΔtolC (JW5503); E. coli ΔTolC, 0.016 μg/mL) is reported as 40-95%. The “MIC E. coli ΔtolC” value (E. coli ΔtolC (JW5503)) was 0.031 µg/mL (≈ 0.0766 µM).
In the case of `Cc1c(CN(C)C(=O)/C=C/c2cnc3c(c2)CC2(CC(CN)C2)C(=O)N3)oc2ccccc12` (centres unmarked), the “MIC K. pneumoniae BAA 2472” value (K. pneumoniae BAA 2472) is reported as 32 µg/mL (≈ 72 µM), the “MIC K. pneumoniae AR 0066” value (K. pneumoniae AR 0066) is reported as 32 µg/mL (≈ 72 µM) and the “MIC A. baumannii AR 0299” value (A. baumannii AR 0299) is reported as over 32 µg/mL. For the same compound, the “MIC E. coli AR 0085” value (E. coli AR 0085) was 16 µg/mL (≈ 36 µM), the “MIC E. coli AR 0048” value (E. coli AR 0048) was 32 µg/mL (≈ 72 µM) and the “MIC A. baumannii AR 0313” value (A. baumannii AR 0313) was over 32 µg/mL. For the same compound, the “MIC A. baumannii AR 0033” value (A. baumannii AR 0033) was 32 µg/mL (≈ 72 µM), the “MIC A. baumannii AR 0273” value (A. baumannii AR 0273) was over 32 µg/mL and the “MIC K. pneumoniae AR 0560” value (K. pneumoniae AR 0560) was 32 µg/mL (≈ 72 µM). The “MIC K. pneumoniae AR 0113” value (K. pneumoniae AR 0113) was 32 µg/mL (≈ 72 µM).
